The target of assay [1] is Histone-lysine N-methyltransferase SETDB1 (Homo sapiens) (UniProt Q15047). In words: Selectivity interaction (Methyltransferase screen (Scintillation proximity assays)) EUB0000255b SETDB1. (In a scintillation proximity assay essentially only radioactivity close to the scintillant gives light.)
Assay [2] concerns the target Serine/threonine-protein kinase 32B (Homo sapiens) (UniProt Q9NY57). In words: Selectivity interaction (KinomeScan (DiscoverX)) EUB0000595a STK32B. Particulars: at 10 µM.
In assay [3] the target is T1, Dual specificity mitogen-activated protein kinase kinase 6 (Homo sapiens) (UniProt P52564).
T1 sequence (whole entry): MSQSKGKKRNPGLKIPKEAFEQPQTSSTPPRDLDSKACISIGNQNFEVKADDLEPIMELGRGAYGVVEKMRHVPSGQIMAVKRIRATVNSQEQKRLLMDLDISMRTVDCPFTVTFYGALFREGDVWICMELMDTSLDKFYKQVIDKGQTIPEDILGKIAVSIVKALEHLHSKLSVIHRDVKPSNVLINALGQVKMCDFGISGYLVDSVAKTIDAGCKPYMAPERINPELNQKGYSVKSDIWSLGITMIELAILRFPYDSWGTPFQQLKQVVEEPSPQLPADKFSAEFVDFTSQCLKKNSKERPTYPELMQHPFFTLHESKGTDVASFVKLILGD
In words: Selectivity interaction (KinomeScan (DiscoverX)) EUB0000695a MAP2K6. The settings on record: at 100 nM.

Assay [4] addresses Mitogen-activated protein kinase kinase kinase 9 (Homo sapiens) (UniProt P80192). In words: Selectivity interaction (KinomeScan (DiscoverX)) EUB0000045b MAP3K9.
For assay [5], the system named is Leucine-rich repeat serine/threonine-protein kinase 2 (Homo sapiens), Q5S007 [G2019S]. As to the kind of experiment: (§1) Selectivity interaction (KinomeScan (DiscoverX)) EUB0000655a LRRK2. The settings on record: at 10 µM.
Sequence of Leucine-rich repeat serine/threonine-protein kinase 2 (Homo sapiens), Q5S007 [G2019S] (Q5S007 whole entry G2019S): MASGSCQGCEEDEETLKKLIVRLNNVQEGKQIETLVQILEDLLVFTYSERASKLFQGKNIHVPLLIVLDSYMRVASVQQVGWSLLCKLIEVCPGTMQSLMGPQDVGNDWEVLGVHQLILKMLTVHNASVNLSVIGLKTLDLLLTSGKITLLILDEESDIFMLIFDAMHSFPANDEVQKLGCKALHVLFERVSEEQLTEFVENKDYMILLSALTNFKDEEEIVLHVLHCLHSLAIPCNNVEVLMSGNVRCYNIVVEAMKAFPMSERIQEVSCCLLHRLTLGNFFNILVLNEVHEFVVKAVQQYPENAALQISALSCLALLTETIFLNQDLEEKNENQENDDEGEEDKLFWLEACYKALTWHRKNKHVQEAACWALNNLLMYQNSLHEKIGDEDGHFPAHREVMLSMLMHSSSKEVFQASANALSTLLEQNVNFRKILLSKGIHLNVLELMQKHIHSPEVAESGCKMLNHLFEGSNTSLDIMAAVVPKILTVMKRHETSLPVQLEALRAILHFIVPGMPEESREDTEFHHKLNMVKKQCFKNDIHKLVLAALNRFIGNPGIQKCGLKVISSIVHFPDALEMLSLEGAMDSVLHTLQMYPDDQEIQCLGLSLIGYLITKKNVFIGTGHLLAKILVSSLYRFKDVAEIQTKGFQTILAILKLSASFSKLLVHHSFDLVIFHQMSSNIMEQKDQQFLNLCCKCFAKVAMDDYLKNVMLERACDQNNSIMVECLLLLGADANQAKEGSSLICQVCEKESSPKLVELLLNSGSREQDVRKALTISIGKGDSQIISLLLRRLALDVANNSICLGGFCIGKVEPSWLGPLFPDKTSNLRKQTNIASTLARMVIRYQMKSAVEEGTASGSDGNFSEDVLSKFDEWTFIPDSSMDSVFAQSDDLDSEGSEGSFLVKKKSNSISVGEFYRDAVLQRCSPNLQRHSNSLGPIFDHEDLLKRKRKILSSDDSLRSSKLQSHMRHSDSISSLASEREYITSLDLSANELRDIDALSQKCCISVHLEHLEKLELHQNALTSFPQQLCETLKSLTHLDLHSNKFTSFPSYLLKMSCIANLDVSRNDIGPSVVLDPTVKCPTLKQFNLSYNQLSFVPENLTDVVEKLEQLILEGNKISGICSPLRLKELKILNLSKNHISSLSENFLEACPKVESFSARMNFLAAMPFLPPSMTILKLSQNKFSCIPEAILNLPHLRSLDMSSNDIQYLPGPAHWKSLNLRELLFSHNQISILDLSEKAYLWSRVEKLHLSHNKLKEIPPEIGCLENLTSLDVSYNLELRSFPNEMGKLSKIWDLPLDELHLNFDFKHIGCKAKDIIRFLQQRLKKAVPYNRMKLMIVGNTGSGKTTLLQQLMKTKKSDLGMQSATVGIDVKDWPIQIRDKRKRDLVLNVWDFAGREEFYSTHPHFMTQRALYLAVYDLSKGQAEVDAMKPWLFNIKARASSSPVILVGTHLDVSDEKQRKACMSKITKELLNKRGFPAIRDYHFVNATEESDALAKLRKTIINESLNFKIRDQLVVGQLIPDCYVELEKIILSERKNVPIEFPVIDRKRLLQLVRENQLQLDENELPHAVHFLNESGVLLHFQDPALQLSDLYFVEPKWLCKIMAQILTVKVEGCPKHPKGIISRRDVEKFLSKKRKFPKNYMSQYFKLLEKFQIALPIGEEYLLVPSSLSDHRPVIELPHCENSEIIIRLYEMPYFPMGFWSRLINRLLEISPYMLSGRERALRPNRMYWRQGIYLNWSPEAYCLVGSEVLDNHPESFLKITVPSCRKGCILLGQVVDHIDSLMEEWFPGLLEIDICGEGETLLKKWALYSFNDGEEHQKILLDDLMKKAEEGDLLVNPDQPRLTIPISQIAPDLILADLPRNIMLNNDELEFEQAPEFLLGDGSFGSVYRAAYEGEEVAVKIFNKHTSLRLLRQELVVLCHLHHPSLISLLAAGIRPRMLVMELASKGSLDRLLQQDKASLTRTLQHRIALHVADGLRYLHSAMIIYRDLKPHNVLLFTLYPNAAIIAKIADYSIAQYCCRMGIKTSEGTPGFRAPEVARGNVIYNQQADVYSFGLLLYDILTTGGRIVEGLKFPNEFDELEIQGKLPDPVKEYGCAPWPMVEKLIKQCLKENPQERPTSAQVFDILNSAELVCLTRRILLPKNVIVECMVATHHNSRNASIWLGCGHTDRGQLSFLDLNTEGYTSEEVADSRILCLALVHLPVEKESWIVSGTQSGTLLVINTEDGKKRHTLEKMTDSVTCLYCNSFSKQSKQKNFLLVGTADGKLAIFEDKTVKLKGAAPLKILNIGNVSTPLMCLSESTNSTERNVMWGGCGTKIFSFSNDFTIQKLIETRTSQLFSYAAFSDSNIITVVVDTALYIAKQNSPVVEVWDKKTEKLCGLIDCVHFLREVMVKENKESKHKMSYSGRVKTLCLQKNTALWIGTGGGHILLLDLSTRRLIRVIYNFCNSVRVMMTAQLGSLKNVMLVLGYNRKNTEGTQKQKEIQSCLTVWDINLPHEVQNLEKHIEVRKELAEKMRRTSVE
Assay [6] concerns the target Leucine-rich repeat serine/threonine-protein kinase 2 (Homo sapiens, UniProt Q5S007). Described as §1. Particulars: at 10 µM.
Assay [7] has as its target Serine/threonine-protein kinase 16 (Homo sapiens, UniProt O75716). In words: Selectivity interaction (KinomeScan (DiscoverX)) EUB0000655a STK16. The settings on record: at 10 µM.
Assay [8] addresses T2, Mitogen-activated protein kinase kinase kinase kinase 2 (Homo sapiens) (UniProt Q12851).
T2 sequence (whole entry): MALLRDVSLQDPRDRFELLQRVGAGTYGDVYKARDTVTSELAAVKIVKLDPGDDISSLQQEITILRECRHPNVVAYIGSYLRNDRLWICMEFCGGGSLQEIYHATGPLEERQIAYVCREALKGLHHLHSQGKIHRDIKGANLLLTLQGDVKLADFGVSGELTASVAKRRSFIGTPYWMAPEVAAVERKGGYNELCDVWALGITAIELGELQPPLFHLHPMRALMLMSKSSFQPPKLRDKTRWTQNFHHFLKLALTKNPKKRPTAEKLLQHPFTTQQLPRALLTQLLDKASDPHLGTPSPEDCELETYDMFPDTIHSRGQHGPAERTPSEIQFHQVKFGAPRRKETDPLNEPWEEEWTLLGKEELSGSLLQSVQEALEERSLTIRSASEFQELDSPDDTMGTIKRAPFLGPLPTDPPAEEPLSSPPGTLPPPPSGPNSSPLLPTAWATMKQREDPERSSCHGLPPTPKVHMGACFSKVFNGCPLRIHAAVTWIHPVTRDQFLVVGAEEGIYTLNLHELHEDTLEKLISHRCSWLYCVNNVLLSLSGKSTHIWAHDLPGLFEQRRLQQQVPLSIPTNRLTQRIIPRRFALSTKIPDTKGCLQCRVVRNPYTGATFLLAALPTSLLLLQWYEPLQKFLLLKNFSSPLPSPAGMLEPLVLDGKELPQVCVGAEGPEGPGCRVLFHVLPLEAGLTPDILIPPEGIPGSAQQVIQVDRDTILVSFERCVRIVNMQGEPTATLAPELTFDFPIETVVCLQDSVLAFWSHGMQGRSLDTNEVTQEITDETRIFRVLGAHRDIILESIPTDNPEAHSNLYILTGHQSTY
In words: Selectivity interaction (KinomeScan (DiscoverX)) EUB0000618a MAP4K2. The settings on record: at 10 µM.

For assay [9], the target named is T3, 5-hydroxytryptamine receptor 3A (Homo sapiens) (UniProt P46098).
T3 sequence (whole entry): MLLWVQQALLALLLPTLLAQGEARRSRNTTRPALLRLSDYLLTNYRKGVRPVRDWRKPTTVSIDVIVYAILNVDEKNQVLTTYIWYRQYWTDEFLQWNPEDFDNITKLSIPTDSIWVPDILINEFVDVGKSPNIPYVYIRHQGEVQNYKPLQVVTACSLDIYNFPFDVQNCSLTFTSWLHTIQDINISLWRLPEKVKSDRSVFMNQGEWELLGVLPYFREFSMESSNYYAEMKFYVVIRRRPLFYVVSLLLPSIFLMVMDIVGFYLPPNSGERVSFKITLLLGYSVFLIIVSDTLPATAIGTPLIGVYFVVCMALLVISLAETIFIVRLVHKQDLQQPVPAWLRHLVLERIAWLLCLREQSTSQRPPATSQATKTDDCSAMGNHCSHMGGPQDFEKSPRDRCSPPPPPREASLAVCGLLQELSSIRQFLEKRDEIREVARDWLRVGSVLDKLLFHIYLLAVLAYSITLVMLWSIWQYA
As to the kind of experiment: Selectivity interaction (GPCR panel (PDSP screen)) EUB0001079a HTR3A. Particulars: at 10 µM.

In assay [10] the target is Substance-P receptor (Homo sapiens) (UniProt P25103). In words: Selectivity interaction (Panel of kinases, GPCRs, ion channels and transporters (enzymatic assay)) EUB0000266bCl TACR1.
Assay [11] has as its target Ephrin type-A receptor 5 (Homo sapiens) (UniProt P54756). As to the kind of experiment: Selectivity interaction (KinomeScan (DiscoverX)) EUB0000229b EPHA5. The settings on record: at 10 µM.
Assay [12] concerns the target Phosphatidylinositol 4,5-bisphosphate 3-kinase catalytic subunit alpha isoform (Homo sapiens) (UniProt P42336). In words: (§2) Selectivity interaction (KinomeScan (DiscoverX)) EUB0000229b PIK3CA. Particulars: at 10 µM.
Assay [13] relates to Phosphatidylinositol 4,5-bisphosphate 3-kinase catalytic subunit alpha isoform (Homo sapiens), P42336 [C420R]. The description is as §2. Particulars: at 1 µM.
Assay [14] relates to Phosphatidylinositol 4,5-bisphosphate 3-kinase catalytic subunit alpha isoform (Homo sapiens), P42336 [E542K]. The description is as §2. Particulars: at 1 µM.
Assay [15] relates to Phosphatidylinositol 4,5-bisphosphate 3-kinase catalytic subunit alpha isoform (Homo sapiens), P42336 [E545A]. The description is as §2. The settings on record: at 1 µM.
Assay [16] deals with Phosphatidylinositol 4,5-bisphosphate 3-kinase catalytic subunit alpha isoform (Homo sapiens), P42336 [E545K]. Described as §2. The settings on record: at 1 µM.
The subject of assay [17] is Phosphatidylinositol 4,5-bisphosphate 3-kinase catalytic subunit alpha isoform (Homo sapiens), P42336 [H1047L]. The assay is described as §2. Particulars: at 1 µM.
Assay [18] concerns Phosphatidylinositol 4,5-bisphosphate 3-kinase catalytic subunit alpha isoform (Homo sapiens), P42336 [H1047Y]. The assay is described as §2. Particulars: at 1 µM.
Assay [19] relates to Phosphatidylinositol 4,5-bisphosphate 3-kinase catalytic subunit alpha isoform (Homo sapiens), P42336 [I800L]. The description is as §2. Particulars: at 1 µM.
Assay [20] deals with Phosphatidylinositol 4,5-bisphosphate 3-kinase catalytic subunit alpha isoform (Homo sapiens), P42336 [M1043I]. The assay is described as §2. Particulars: at 1 µM.
Assay [21] has as its system Phosphatidylinositol 4,5-bisphosphate 3-kinase catalytic subunit alpha isoform (Homo sapiens), P42336 [Q546K]. The description is as §2. Particulars: at 1 µM.

The values that follow come from ChEMBL document CHEMBL5465560, “Selectivity Literature for EUbOPEN Chemogenomic Library” (2024).

The structures appear in SMILES notation. A value given as a limit tells only on which side of the number the result lay.

Sequence of Mitogen-activated protein kinase kinase kinase 9 (Homo sapiens) (P80192 whole entry, looked up): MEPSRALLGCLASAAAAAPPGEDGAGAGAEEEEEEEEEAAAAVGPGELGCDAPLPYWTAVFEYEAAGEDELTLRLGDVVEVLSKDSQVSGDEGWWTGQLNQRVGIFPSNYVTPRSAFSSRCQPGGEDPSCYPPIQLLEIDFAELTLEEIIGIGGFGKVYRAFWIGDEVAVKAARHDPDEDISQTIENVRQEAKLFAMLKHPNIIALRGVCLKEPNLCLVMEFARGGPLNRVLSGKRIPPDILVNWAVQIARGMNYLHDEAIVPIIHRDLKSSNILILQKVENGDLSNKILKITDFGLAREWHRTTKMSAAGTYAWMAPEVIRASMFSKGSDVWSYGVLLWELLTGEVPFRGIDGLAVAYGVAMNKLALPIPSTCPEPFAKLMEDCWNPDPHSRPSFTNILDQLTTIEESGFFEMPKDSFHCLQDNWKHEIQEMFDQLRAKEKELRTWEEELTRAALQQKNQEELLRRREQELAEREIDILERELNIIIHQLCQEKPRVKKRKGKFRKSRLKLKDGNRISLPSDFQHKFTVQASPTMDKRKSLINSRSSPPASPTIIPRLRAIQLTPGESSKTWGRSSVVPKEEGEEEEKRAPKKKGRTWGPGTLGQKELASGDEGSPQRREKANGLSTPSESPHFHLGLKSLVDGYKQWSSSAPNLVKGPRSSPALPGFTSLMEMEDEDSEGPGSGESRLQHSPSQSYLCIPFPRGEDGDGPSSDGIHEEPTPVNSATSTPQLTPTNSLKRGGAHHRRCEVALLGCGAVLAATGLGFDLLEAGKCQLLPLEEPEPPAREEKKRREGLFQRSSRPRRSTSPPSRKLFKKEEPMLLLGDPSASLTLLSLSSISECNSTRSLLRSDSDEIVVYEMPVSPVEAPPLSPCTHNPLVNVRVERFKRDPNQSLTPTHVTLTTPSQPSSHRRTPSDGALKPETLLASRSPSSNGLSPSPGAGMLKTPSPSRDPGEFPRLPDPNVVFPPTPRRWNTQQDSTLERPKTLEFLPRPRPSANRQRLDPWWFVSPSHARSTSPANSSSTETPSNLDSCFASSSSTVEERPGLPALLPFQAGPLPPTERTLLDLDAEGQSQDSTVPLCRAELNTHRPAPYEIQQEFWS
Sequence of Serine/threonine-protein kinase 32B (Homo sapiens) (Q9NY57 whole entry): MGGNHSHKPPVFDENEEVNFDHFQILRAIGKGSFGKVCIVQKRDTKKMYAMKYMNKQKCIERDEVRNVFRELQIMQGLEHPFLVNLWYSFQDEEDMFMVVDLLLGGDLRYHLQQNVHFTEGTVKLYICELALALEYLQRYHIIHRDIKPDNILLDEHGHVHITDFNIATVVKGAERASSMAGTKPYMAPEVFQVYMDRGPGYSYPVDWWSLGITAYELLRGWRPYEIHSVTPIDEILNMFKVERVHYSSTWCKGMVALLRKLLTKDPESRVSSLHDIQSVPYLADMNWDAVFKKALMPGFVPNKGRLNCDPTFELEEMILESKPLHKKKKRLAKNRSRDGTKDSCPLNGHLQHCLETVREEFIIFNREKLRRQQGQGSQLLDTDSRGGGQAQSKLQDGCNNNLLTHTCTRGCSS
Sequence of Phosphatidylinositol 4,5-bisphosphate 3-kinase catalytic subunit alpha isoform (Homo sapiens) (P42336 whole entry, canonical isoform): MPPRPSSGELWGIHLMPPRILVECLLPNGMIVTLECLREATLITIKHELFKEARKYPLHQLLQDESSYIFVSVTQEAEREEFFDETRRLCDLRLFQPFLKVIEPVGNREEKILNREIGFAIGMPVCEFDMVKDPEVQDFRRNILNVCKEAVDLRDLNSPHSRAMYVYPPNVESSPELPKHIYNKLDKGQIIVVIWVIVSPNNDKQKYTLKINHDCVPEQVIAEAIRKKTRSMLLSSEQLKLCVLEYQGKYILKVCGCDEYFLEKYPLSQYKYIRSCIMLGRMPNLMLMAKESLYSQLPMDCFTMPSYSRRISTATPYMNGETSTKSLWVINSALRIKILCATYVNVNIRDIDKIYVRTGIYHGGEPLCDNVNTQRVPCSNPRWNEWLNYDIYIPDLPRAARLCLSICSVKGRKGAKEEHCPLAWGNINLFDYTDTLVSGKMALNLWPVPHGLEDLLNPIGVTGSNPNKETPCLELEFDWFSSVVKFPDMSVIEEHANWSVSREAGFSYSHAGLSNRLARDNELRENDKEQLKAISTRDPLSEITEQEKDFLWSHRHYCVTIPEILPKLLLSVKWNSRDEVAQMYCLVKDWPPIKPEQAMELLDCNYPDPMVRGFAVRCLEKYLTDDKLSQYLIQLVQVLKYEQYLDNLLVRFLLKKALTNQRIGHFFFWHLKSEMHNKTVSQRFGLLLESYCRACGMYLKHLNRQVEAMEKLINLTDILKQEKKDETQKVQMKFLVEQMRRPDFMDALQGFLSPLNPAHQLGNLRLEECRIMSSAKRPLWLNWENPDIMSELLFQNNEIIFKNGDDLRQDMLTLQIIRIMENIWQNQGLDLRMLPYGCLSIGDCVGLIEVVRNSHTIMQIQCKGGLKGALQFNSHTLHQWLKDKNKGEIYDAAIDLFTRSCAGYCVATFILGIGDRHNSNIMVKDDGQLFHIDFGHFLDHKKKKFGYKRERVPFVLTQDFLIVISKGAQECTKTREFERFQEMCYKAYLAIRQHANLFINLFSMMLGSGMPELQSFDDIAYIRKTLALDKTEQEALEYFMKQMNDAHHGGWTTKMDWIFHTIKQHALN

Turning to `COCCN1CCC(c2cc(CN(C)C(=O)c3cccc(Oc4ccccc4)c3)ccn2)CC1`, the % activity is over 95% in assay [1] (at 1 µM) and over 90% in assay [1] (at 10 µM).
Turning to `COCC(=O)NC/C=C/c1ccc2ncnc(Nc3ccc(Oc4ccc(C)nc4)c(C)c3)c2c1` [CP-724714], the % of control in assay [2] was 92%.
The compound `Cc1cc(F)c(C(=O)Nc2cccc(-c3nncn3C(C)C)n2)cc1-n1cnc(C2CC2)c1` had a % of control in assay [3] of 100%.
As to `C=CC(=O)Nc1cc(-n2c(=O)ccc3cnc4ccc(-c5ccc(NS(C)(=O)=O)cc5)cc4c32)ccc1C`, the % of control in [4] (at 1 µM) turned out to be 100%; in assay [4] (at 10 µM), 83%.
Regarding `CN(C)CCOc1ccc(-c2nc(-c3ccncc3)c(-c3ccc4c(c3)CC/C4=N\O)[nH]2)cc1`, the % of control in [5] was 76%; in assay [6], 79%; in assay [7], 94%.
In assay [8], `O[C@H]1CC[C@H](Nc2ncc3nc(Nc4c(F)cc(F)cc4F)n([C@H]4CCOC4)c3n2)CC1` yielded a % of control of 91%.
`Nc1cnc(N2CCc3cc(S(=O)(=O)Nc4c(F)cc(Cl)cc4F)cc(N4CCCC4=O)c32)nc1` [TP-020n] registered a % of inhibition in assay [9] of 0.32%.
`CCn1c(-c2nc3cc(C(=O)N4CCCC(N)C4)ccc3n2C)cc2ccccc21` (stereo not drawn): the pXC50 in assay [10] was under 4.4 M.
For the compound `COc1cc(N(C)c2ccnc3ccc(C(F)(F)F)cc23)cc(OC)c1OC`, the % binding in assay [11] is 97%; in assay [12], 100%; in assay [13], 87%; in assay [14] it was 90%; in assay [15] it was 67%; in [16], 76%. In addition, the % binding in [17] is 63%; in assay [18], 90%; in assay [19], 72%; in assay [20], 87%; in assay [21], 81%.
